Measured values published in patent US20110065749A1, “METHOD AND PHARMACEUTICAL COMPOSITION FOR TREATMENT OF MENTAL DISORDERS” (ACTIVE CO. LTD., priority 2008, published 2011).
Where a name gives a salt, the structure may show the parent alone.

How the values were obtained:
[1] = test system: Refractory Depression; test: Case 2: refractory depression patient, HAMD; assay type: in vivo, human
Description: For evaluation of the state of depression, for example, Hamilton's rating scale for depression (HAMD) is available. The HAMD was developed by Max Hamilton in 1960 for the purpose of measuring the severity of a patient diagnosed with depression (Hamilton, M., Journal of Neurology, Neurosurgery & Psychiatry, 23-56-62 (1960) and Hamilton, M., “Development of rating scale for primary depressive illness”, British Journal of Social and Clinical Psychology, 6: 278-296 (1967)). In view of its high usefulness, it is a representative scale of evaluation for depression, widely used in clinical researches and practices. The 17 item version is used for clinical trials of antidepressants in Japan, whereas the 21 item version and the 24 item version are used in Europe or other countries. When the severity is calculated using Hamilton's rating scale for depression (HAMD), each item is evaluated with three grades of 0-2, or five grades of 0-4. For example, the case is diagnosed as severe where the point is 20 or higher and, as the point decreases, the symptom is diagnosed as being improved. Case 2: Refractory Depression Patient was a person, who was unresponsive to any combination of SSRIs, SNRIs, tricyclic antidepressants, and antianxiety agents in their respective maximum doses. The score of HAMD was 23 points. […] Increasing the dose of Cephadol® to 150 mg/day improved the score of HAMD to 3 points. The improvement lasted even after other antidepressants were removed. Even 3 months later, the score of HAMD was still 3 points. When the dose of Cephadol® was reduced to 75 mg/day, the score of HAMD became 13 points after one week.

[2] = test system: Alzheimer-Type Dementia; test: Case 4: Alzheimer-type dementia patient; assay type: in vivo, human; conditions: 50 mg before sleeping, added to donepezil hydrochloride
Description: Case 4: Alzheimer-Type Dementia

[3] = test system: Panic Disorder and Multiple Personality Disorder; test: Case 10: panic disorder and multiple personality disorder patient; assay type: in vivo, human
Description: Case 10: Panic Disorder and Multiple Personality Disorder
Patient was a single person, who had been treated at several psychiatric hospitals. […] They report that the medicine is best to calm their mind, and easier to take than any other drugs that they have ever taken.

[4] = test system: Attention Deficit Hyperactivity Disorder (ADHD); test: Case 1: ADHD patient treated with Cephadol; assay type: in vivo, human
Description: Case 1: Attention Deficit Hyperactivity Disorder (ADHD)
Patient was a person, who had often shown violent behaviors. Quarreling with a bad-mannered person on the road and performing violent acts such as hitting had occurred once or twice a week. […] When they discontinued the medication with 75 mg/day Cephadol®, the symptom returned to the previous state. The effect of Cephadol® appeared in about two days, and the symptom returned to the original state in 5 days after discontinuation of the drug.

[5] = test system: Insomnia; test: Case 11: insomnia in an elderly person; assay type: in vivo, human
Description: Case 11: Insomnia in an Elderly Person A person had had no history of insomnia or depression before they retired from their company at mandatory retirement age. […] Being seriously distressed by insomnia, they had been prescribed hypnotics at two or three mental clinics. The hypnotics had made them easily fall down when going to the bathroom at night, and made them feel half awake in the morning, with memory impairment. The patient was started on 50 mg Cephadol® twice a day (after dinner and before sleeping).

[6] = test system: Alcoholism; test: Case 6: alcoholism patient; assay type: in vivo, human
Description: Case 6: Alcoholism Patient was a office worker, who was drinking 1 to 2 liters of beer and 3 to 5 glasses of distilled spirit or whisky with water every day. They were drinking alcohol in daytime on Sundays, and suffering from a complication of liver dysfunction.

[7] = test system: Behavioral and Psychological Symptoms of Dementia; test: Case 5: behavioral and psychological symptoms of dementia; assay type: in vivo, human; conditions: 100 mg/day
Description: Case 5: Effect on Behavioral and Psychological Symptoms of Dementia Patient was a person with dementia, who was irritable and easily excited, and had persecutory delusion.

[8] = test system: evoked potential of hypothalamus by vestibular nuclei stimulation; conditions: rat experiments; cited from earlier work
[9] = test system: Fibromyalgia; test: Case 18: fibromyalgia (4) patient; assay type: in vivo, human
Description: Case 18: Fibromyalgia (4)
A person (housewife) is a patient with depression, having received regular medical treatment since seven years ago. […] However, a diagnosis with autoimmune disease or inflammatory disease was negative from their blood test. Due to back pain and fingertip pain, they were unable to make household work, and it was painful for them to hold even a light object by hand. They had pain at 15 points among the 18 tender points of the whole body, and was diagnosed with fibromyalgia. […] They had to stay in bed all day long, and such a condition lasted for the long term.

[10] = test system: manic state of bipolar I disorder; test: Case 3: manic-depressive illness patient; assay type: in vivo, human
Description: Case 3: Manic-Depressive Illness Patient was a person, who had continuously been in a manic state of bipolar I disorder for over one month. An antiepileptic drug, or 1,200 mg of Limas®, was ineffective. Antipsychotic drugs were not usable due to significant side effects. […] When they discontinued the administration of Cephadol®, the manic state appeared after 5 days.

[11] = test system: nystagmus by experimental disorder of balance function; conditions: rabbit experiments; cited from earlier work
[12] = 50 mg twice a day, hypnotics halved

For `OC(CCCN1CCCCC1)(c1ccccc1)c1ccccc1` [Cephadol®, 1,1-diphenyl-4-piperidine-1-ylbuthan-1-ol monohydrochloride], the depressive symptom ([1]; 75 mg/day, HAMD 23 points before) was “significant improvement”, the “score of HAMD” value ([1]; 150 mg/day, 3 months later, other antidepressants removed) was 3 points and the side effects ([1]; 75-150 mg/day) was “no side effects”. For the same compound, the “score of HAMD” value ([1]; dose increased to 150 mg/day, 23 points before) was 3 points, the “score of HAMD” value ([1]; dose reduced to 75 mg/day, after one week) was 13 points and the “excitation caused by donepezil hydrochloride” value [2] was “reduced the excitation”. For the same compound, the panic disorder ([3]; 75 mg/day for one week, then 150 mg/day) was “significant improvement of panic disorder”, the transformation of personality ([3]; 150 mg/day, previously 5 to 10 times a month) was “improved” and the antianxiety effect ([3]; 75-150 mg/day) was “strong antianxiety effect”. The side effects ([4]; 75 mg/day) was “no side effects”, the impulsivity ([4]; 75 mg/day, on day seven) was “disappearance of the impulsivity” and the impulsivity ([4]; 75 mg/day, on day two) was “reduction of impulsivity”. For the same compound, the “time until the symptom returned to the original state after discontinuation of the drug” value ([4]; after discontinuation of 75 mg/day) was 5 days, the “dose of concomitant hypnotics” value ([5]; 50 mg twice a day) was “reduced in dose by half” and the side effects ([5]; 50 mg twice a day) was “no side effects”. The sleep ([5]; 50 mg twice a day (after dinner and before sleeping)) was “became able to sleep well”, the “memory impairment on the next morning” value [5, 12] was “without memory impairment” and the “staggering gait on awaking at night” value [5, 12] was “free from staggering gait on awaking at night”. The overdrinking ([6]; 150 mg/day continued for three months) was “without any emergence of overdrinking”, the side effects ([6]; 150 mg/day for three months) was “without any side effects” and the “impulse to drink alcohol” value ([6]; 150 mg/day, on the next day) was “eliminated their impulse to drink alcohol”. For the same compound, the restlessness and anxiety ([6]; 150 mg/day, on the next day) was “eliminated their restlessness and anxiety”, the mental stability [7] was “significantly improved mental stability” and the “nuisance behaviors caused by the persecutory delusion” value [7] was “prevented their nuisance behaviors to other people”. For the same compound, the side effects [7] was “no side effects”, the “evoked potential of hypothalamus by vestibular nuclei stimulation” value [8] was “inhibited the evoked potential of hypothalamus by vestibular nuclei stimulation” and the malaise ([9]; 75 mg/day) was “significant improvement in malaise”. For the same compound, the “mobility of large joints (objective)” value ([9]; 125 mg/day) was “the mobility of large joints increased”, the “back pain and fingertip pain” value ([9]; dose increased to 125 mg/day) was “improved the back pain and fingertip pain” and the “effect on the disease (manic state)” value ([10]; 150 mg/day) was “significant amelioration of the disease”. For the same compound, the side effects ([10]; 150 mg/day) was “no side effects”, the “time until the manic state appeared after discontinuation” value ([10]; after discontinuation of 150 mg/day) was 5 days and the “emergence of nystagmus by experimental disorder of balance function” value [11] was “inhibited the emergence of nystagmus by experimental disorder of balance function”.
